Assay results reported in patent US9925189B2, “Heterocyclic receptor agonists for the treatment of diabetes and metabolic disorders” (CymaBay Therapeutics, Inc., priority 2006, dated 2018).

Molecular target: T1, IC-GPCR2 (Homo sapiens, UniProt Q8TDV5, S309L)
T1 construct: expressed in transfected cells
T1 sequence (Q8TDV5 1-335 S309L): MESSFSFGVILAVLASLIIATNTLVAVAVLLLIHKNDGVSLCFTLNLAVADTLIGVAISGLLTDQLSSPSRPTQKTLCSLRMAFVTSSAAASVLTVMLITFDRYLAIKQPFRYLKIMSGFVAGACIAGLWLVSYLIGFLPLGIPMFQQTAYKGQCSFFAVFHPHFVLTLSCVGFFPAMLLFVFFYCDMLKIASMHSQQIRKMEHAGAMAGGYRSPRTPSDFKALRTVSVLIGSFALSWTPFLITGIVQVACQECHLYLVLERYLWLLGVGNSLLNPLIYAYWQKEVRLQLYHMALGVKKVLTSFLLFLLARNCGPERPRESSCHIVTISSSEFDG
Assay: Stimulation of cAMP in CHO cells stably expressing IC-GPCR2 (HTRF cAMP assay)
Type: cell-based
Details: 30 minutes, IC-GPCR2 stably expressing CHO cells; for activation at 10 µM: 0.5 h, read-out: Activity at 10 uM (% change in FRET signal from DMSO control)
Protocol: This assay was developed using a stable cell line expressing IC-GPCR-2, generated as follows. IC-GPCR2 (SEQ ID NO:1) was cloned into Gateway pDEST 40vector (Invitrogen), using the Gateway cloning system (invitrogen) according to the manufacturer's instructions. A stable cell line was generated by transfecting a 10 cm plate of CHO cells (source) with 8 ug of this construct using Transit-CHO transfection kit (Mirus). CHO cells were plated the day prior to transfection at a density of 3,000,000 cells/plate. Clones were selected using the antibiotic G418 at 500 ug/ml. 23 clones were picked and assayed for the expression of the receptor by measuring changes in intracellular cAMP levels in response to an IC-GPCR2 agonist.
To measure cAMP activity in response to IC-GPCR2 agonist, the clones were plated in 96 well plates at 17500 cells per well. On the day after plating, cells were incubated with the IC-CPCR2 agonist at […] for 30 minutes in Ham's F12 Media (Gibco) with 0.04% DMSO. cAMP was measured using the cAMP dynamic kit from Cis Bio (Bedford, Mass.) according to the manufacturer's instructions. Briefly, cells were lysed, and cAMP levels determined by competitive immunoassay using D2 labeled cAMP, and europium cryptate tagged anti cAMP antibody. When in close proximity, the D2 and europium cryptate undergo fluorescence resonance energy transfer (FRET), which is measured as a fluorescence ratio (665 nm/620 nm). Unlabelled cAMP in the cell lysate competed with the D2 labeled cAMP for the europium crypate labeled antibody. The resulting decrease in FRET signal corresponded to intracellular cAMP levels. Fluorescence was read on a BMG Labtech PHERAstar, software version 1.50.
Compounds were dissolved in 100% DMSO to a concentration of […] to provide stock solutions. To determine activity against IC-GPCR2, compounds were incubated with IC-GPCR2 stably expressing cells (described above), at 6-8 concentrations ranging from 0.00003 to 10 micromolar, in 96 well plates, in 50 ul of Hams F12 media for 30 minutes. Cells were plated at 17500 cells per well 1 day before running the assay. All compounds were also screened against the parental CHO cells. cAMP was measured using the cAMP dynamic kit from Cis Bio (Bedford, Mass.), according to the manufacturer's instructions. Briefly, cells were lysed and cAMP levels determined by competitive immunoassay using D2 labeled cAMP, and europium cryptate tagged anti cAMP antibody. When in close proximity, the D2 and europium cryptate undergo fluorescence resonance energy transfer (FRET), which is measured as a fluorescence ratio (665 nm/620 nm). Unlabelled cAMP in the cell lysate competed with the D2 labeled cAMP for the europium crypate labeled antibody. The resulting decrease in FRET signal corresponded to intracellular cAMP levels.
Activities of compounds disclosed in Table 1 and Table 2 below are expressed as the % change in FRET signal from DMSO control. “*” no activity observed when tested at 10 micromolar but no higher concentrations were tested. NT indicates the compound was not tested at the indicated concentration.

`CS(=O)(=O)c1ccc(OCc2csc(C3CCN(C(=O)OC45CC6CC(CC(C6)C4)C5)CC3)n2)cc1` [Example 25, 4-[4-(4-Methanesulfonyl-phenoxymethyl)-thiazol-2-yl]-piperidine-1-carboxylic acid adamantan-1-yl ester] gave an activation at 10 µM of 23%.

With `COC(=O)N1CCC(c2nc(COc3ccc(S(C)(=O)=O)cc3)cs2)CC1` [Example 26, 4-[4-(4-Methanesulfonyl-phenoxymethyl)-thiazol-2-yl]-piperidine-1-carboxylic acid methyl ester] the activation at 10 µM was 58%.

`CS(=O)(=O)c1ccc(OCc2csc(C3CCN(C(=O)Oc4ccc(F)cc4)CC3)n2)cc1` [Example 27, 4-[4-(4-Methanesulfonyl-phenoxymethyl)-thiazol-2-yl]-piperidine-1-carboxylic acid 4-fluoro-phenyl ester] gave an activation at 10 µM of 63%.

`COc1ccc(OC(=O)N2CCC(c3nc(COc4ccc(S(C)(=O)=O)cc4)cs3)CC2)cc1` [Example 28, 4-[4-(4-Methanesulfonyl-phenoxymethyl)-thiazol-2-yl]-piperidine-1-carboxylic acid 4-methoxy-phenyl ester] was tested, and the activation at 10 µM was 62%.

`CS(=O)(=O)c1ccc(OCc2csc(C3CCN(C(=O)Oc4cccc5ccccc45)CC3)n2)cc1` [Example 29, 4-[4-(4-Methanesulfonyl-phenoxymethyl)-thiazol-2-yl]-piperidine-1-carboxylic acid naphthalen-1-yl ester] was tested, and the activation at 10 µM was 51%.

In the case of `CC(C)COC(=O)N1CCC(c2nc(COc3ccc(-n4cnnn4)cc3)cs2)CC1` [Example 30, 4-[4-(4-Tetrazol-1-yl-phenoxymethyl)-thiazol-2-yl]-piperidine-1-carboxylic acid isobutyl ester], the activation at 10 µM is reported as 73%.

Molecule `CCCCCOC(=O)N1CCC(c2nc(COc3ccc(-n4cnnn4)cc3)cs2)CC1` [Example 31, 4-[4-(4-Tetrazol-1-yl-phenoxymethyl)-thiazol-2-yl]-piperidine-1-carboxylic acid pentyl ester] has an activation at 10 µM of 88%.

`O=C(OCCF)N1CCC(c2nc(COc3ccc(-n4cnnn4)cc3)cs2)CC1` [Example 32, 4-[4-(4-Tetrazol-1-yl-phenoxymethyl)-thiazol-2-yl]-piperidine-1-carboxylic acid 2-fluoro-ethyl ester] was tested, and the activation at 10 µM was 88%.

`CCCCOC(=O)N1CCC(c2nc(COc3ccc(-n4cnnn4)cc3)cs2)CC1` [Example 33, 4-[4-(4-Tetrazol-1-yl-phenoxymethyl)-thiazol-2-yl]-piperidine-1-carboxylic acid butyl ester] showed an activation at 10 µM of 77%.

Work on `CC(C)(C)COC(=O)N1CCC(c2nc(COc3ccc(-n4cnnn4)cc3)cs2)CC1` [Example 34, 4-[4-(4-Tetrazol-1-yl-phenoxymethyl)-thiazol-2-yl]-piperidine-1-carboxylic acid 2,2-dimethyl-propyl ester] yielded an activation at 10 µM of 70%.

`CCCCCCOC(=O)N1CCC(c2nc(COc3ccc(-n4cnnn4)cc3)cs2)CC1` [Example 35, 4-[4-(4-Tetrazol-1-yl-phenoxymethyl)-thiazol-2-yl]-piperidine-1-carboxylic acid hexyl ester] gave an activation at 10 µM of 64%.

With `CCCCC(CC)COC(=O)N1CCC(c2nc(COc3ccc(-n4cnnn4)cc3)cs2)CC1` (centres unmarked) [Example 36, 4-[4-(4-Tetrazol-1-yl-phenoxymethyl)-thiazol-2-yl]-piperidine-1-carboxylic acid 2-ethyl-hexyl ester] the activation at 10 µM was 95%.

`O=C(OCCOCc1ccccc1)N1CCC(c2nc(COc3ccc(-n4cnnn4)cc3)cs2)CC1` [Example 37, 4-[4-(4-Tetrazol-1-yl-phenoxymethyl)-thiazol-2-yl]-piperidine-1-carboxylic acid 2-benzyloxy-ethyl ester] was tested, and the activation at 10 µM was 80%.

In the case of `CC(C)[C@@H]1CC[C@@H](C)C[C@H]1OC(=O)N1CCC(c2nc(COc3ccc(-n4cnnn4)cc3)cs2)CC1` [Example 38, 4-[4-(4-Tetrazol-1-yl-phenoxymethyl)-thiazol-2-yl]-piperidine-1-carboxylic acid 2-isopropyl-5-methyl-cyclohexyl ester], the activation at 10 µM is reported as 39%.

For `CS(=O)(=O)c1ccc(OCc2csc(C3CCN(C(=O)C45CC6CC(CC(C6)C4)C5)CC3)n2)cc1` [Example 39, Adamantan-1-yl-{4-[4-(4-methanesulfonyl-phenoxymethyl)-thiazol-2-yl]-piperidin-1-yl}-methanone], the activation at 10 µM was 9%.

Work on `CS(=O)(=O)c1ccc(OCc2csc(C3CCN(C(=O)c4cccnc4)CC3)n2)cc1` [Example 40, {4-[4-(4-Methanesulfonyl-phenoxymethyl)-thiazol-2-yl]-piperidin-1-yl}-pyridin-3-yl-methanone] yielded an activation at 10 µM of 21%.

Molecule `CC(C)(C)CC(=O)N1CCC(c2nc(COc3ccc(-n4cnnn4)cc3)cs2)CC1` [Example 41, 3,3-Dimethyl-1-{4-[4-(4-tetrazol-1-yl-phenoxymethyl)-thiazol-2-yl]-piperidin-1-yl}-butan-1-one] has an activation at 10 µM of 75%.

With `COC(=O)C(=O)N1CCC(c2nc(COc3ccc(-n4cnnn4)cc3)cs2)CC1` [Example 42, Oxo-{4-[4-(4-tetrazol-1-yl-phenoxymethyl)-thiazol-2-yl]-piperidin-1-yl}-acetic acid methyl ester] the activation at 10 µM was 67%.

With `CCOC(=O)CC(=O)N1CCC(c2nc(COc3ccc(-n4cnnn4)cc3)cs2)CC1` [Example 43, 3-Oxo-3-{4-[4-(4-tetrazol-1-yl-phenoxymethyl)-thiazol-2-yl]-piperidin-1-yl}-propionic acid ethyl ester] the activation at 10 µM was 47%.

`CN1CCN(C(=O)N2CCC(c3nc(COc4ccc(-n5cnnn5)cc4)cs3)CC2)CC1` [Example 44, (4-Methyl-piperazin-1-yl)-{4-[4-(4-tetrazol-1-yl-phenoxymethyl)-thiazol-2-yl]-piperidin-1-yl}-methanone] gave an activation at 10 µM of 53%.

`CCN(CC)C(=O)N1CCC(c2nc(COc3ccc(-n4cnnn4)cc3)cs2)CC1` [Example 45, 4-[4-(4-Tetrazol-1-yl-phenoxymethyl)-thiazol-2-yl]-piperidine-1-carboxylic acid diethylamide] showed an activation at 10 µM of 84%.

With `CCNC(=O)N1CCC(c2nc(COc3ccc(-n4cnnn4)cc3)cs2)CC1` [Example 46, 4-[4-(4-Tetrazol-1-yl-phenoxymethyl)-thiazol-2-yl]-piperidine-1-carboxylic acid ethylamide] the activation at 10 µM was 30%.

With `CS(=O)(=O)c1ccc(OCc2csc(C3CCN(c4ncccn4)CC3)n2)cc1` [Example 47, 2-{4-[4-(4-Methanesulfonyl-phenoxymethyl)-thiazol-2-yl]-piperidin-1-yl}-pyrimidine] the activation at 10 µM was 51%.

Work on `CCc1cnc(N2CCC(c3nc(COc4ccc(S(C)(=O)=O)cc4)cs3)CC2)nc1` [Example 51, 5-Ethyl-2-{4-[4-(4-methanesulfonyl-phenoxymethyl)-thiazol-2-yl]-piperidin-1-yl}-pyrimidine] yielded an activation at 10 µM of 57%.

With `CCc1cnc(N2CCC(c3nc(COc4ccc(-n5cnnn5)cc4)cs3)CC2)nc1` [Example 52, 5-Ethyl-2-{4-[4-(4-tetrazol-1-yl-phenoxymethyl)-thiazol-2-yl]-piperidin-1-yl}-pyrimidine] the “Activity at 10 uM (% change in FRET signal from DMSO control)” value was 67%.

For `Brc1cnc(N2CCC(c3nc(COc4ccc(-n5cnnn5)cc4)cs3)CC2)nc1` [Example 54, 5-Bromo-2-{4-[4-(4-tetrazol-1-yl-phenoxymethyl)-thiazol-2-yl]-piperidin-1-yl}-pyrimidine], the activation at 10 µM was 58%.
